Read-outs that look alike come from different tables or passages of the source. Bridge positions count the residues as written; N and C are the ends. Peptide text beside a SMILES is read from it. * marks the point of attachment. MeO(CH2CH2O)23CH2CH2CO = COCCOCCOCCOCCOCCOCCOCCOCCOCCOCCOCCOCCOCCOCCOCCOCCOCCOCCOCCOCCOCCOCCOCCOCCC(=O)*; CH3O(CH2CH2O)11CH2CH2CO = COCCOCCOCCOCCOCCOCCOCCOCCOCCOCCOCCOCCC(=O)*
Columns and labels:
[1] = target: Recombinant human NEP (Homo sapiens, UniProt P08473); assay: In vitro neutral endopeptidase (NEP) cleavage assay
Outline: (§1)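 Recombinant human NEP (1 ug/mL final) incubated with 100 uM CNP variant in 0.1 M Tris, pH 7, at 37° C for various times, then quenched with EDTA (10 mM final) and heat. Samples reduced and analysed by HPLC and mass spectrometry. Half-life derived from loss of intact variant over time.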

[2] = target: neutral endopeptidase (NEP) (Homo sapiens, UniProt P08473); assay: as above; settings: human, pH 7
Outline: as §1

[3] = target: T1, NPR-B (Mus musculus, UniProt Q6VVW5); assay: Stimulation of cGMP production in NIH3T3 cells; assay type: cell-based, Murine; settings: for cGMP response relative to 1 uM CNP22 (%) at 0.01 µM: read-out: cGMP Response rel. to 1 uM CNP22, 10 nM; for cGMP response relative to 1 uM CNP22 (%) at 1 µM: read-out: cGMP Response rel. to 1 uM CNP22, 1 uM
T1 construct: Murine NIH3T3 cells express endogenously the CNP signaling receptor, NPR-B; endogenous in cells; host or cells: NIH3T3 (murine fibroblasts)
T1 sequence (Q6VVW5 17-1047): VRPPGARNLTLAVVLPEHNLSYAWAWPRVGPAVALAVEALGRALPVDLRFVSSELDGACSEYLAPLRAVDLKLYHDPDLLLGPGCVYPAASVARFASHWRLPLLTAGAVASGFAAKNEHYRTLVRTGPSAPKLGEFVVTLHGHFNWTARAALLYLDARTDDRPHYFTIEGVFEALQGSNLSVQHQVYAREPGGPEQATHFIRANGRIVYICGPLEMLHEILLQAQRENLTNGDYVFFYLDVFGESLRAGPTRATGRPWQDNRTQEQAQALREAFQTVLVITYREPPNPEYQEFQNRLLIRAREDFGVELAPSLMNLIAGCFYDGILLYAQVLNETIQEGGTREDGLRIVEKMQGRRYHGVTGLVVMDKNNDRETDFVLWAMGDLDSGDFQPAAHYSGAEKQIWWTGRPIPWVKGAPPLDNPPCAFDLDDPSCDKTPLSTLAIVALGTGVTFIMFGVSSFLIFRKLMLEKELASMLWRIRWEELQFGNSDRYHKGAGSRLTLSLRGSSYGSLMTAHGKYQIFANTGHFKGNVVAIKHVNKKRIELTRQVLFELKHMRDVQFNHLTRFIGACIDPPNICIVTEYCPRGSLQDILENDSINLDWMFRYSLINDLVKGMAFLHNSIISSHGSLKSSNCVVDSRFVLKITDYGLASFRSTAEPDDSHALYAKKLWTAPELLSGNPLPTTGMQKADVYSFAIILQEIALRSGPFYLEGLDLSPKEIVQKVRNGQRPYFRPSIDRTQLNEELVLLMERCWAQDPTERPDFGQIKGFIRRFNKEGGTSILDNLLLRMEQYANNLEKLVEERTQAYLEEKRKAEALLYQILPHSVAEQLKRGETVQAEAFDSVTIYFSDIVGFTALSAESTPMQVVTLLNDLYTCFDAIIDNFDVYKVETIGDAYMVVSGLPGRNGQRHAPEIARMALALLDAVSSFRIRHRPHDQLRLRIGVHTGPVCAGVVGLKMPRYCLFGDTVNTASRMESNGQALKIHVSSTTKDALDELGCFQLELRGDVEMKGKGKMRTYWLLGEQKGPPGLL

[4] = Pharmacokinetics in normal rats after single i.v. or s.c. administration; settings: male, rat
Description: Studies were conducted in normal rats to evaluate the pharmacokinetics (PK) profile of CNP22 and certain CNP variants and the time courses of plasma cGMP concentration after single intravenous (i.v.) or subcutaneous (s.c.) administration of the CNP peptides. Plasma CNP immunoreactivity was determined by using a competitive radioimmunoassay (RIA) with an anti-CNP rabbit polyclonal antibody. Plasma cGMP concentration was determined by RIA using a commercially available kit (YAMASA cyclic GMP Assay kit, YAMASA Corporation).
Normal male rats, 7-8 weeks of age, were used. Recombinant wild-type CNP22, CNP37 and PEO24-CNP27(Arg4) (i.e., PEO24-GANRR-CNP22(K4R)) were evaluated. A dosage of 20 nmol/kg of each CNP peptide as a solution in 5% mannitol was intravenously injected once into the tail, or a dosage of 50 nmol/kg of each CNP peptide as a solution in 0.03 mol/L acetic acid buffer solution, pH 4.0, containing 1% (w/v) benzyl alcohol and 10% (w/v) sucrose, was subcutaneously injected once into the back.
Plasma CNP immunoreactivity was determined by the competitive RIA using anti-CNP rabbit polyclonal antibody. Standard and QC samples were prepared. Fifty uL of the standard, QC and assay samples were added, respectively, to test tubes containing 50 uL of RIA buffer. Diluted anti-CNP rabbit polyclonal antibody (100 uL) was added to the tubes. All tubes were kept at 4° C. overnight. ^125I-[Tyr^0]-CNP22 solution (100 uL) and rabbit IgG solution (100 uL) were added and left at approximately 4° C. overnight. One milliliter of anti-rabbit IgG goat serum containing 10% polyethylene glycol was added, vortexed and left at approximately 4° C. for at least 1 hour, and then the insoluble fraction was precipitated by centrifugation. After aspiration of the supernatant, the amount of radiation (gamma line) in the sediment was measured by a gamma-counter. Each sample was measured in duplicate, and the mean was adopted as the value determined.
Plasma CNP immunoreactivity was employed for pharmacokinetics (PK) analysis. PK analysis was performed using WINNONLIN® Professional (Pharsight Corporation). The PK profiles of CNP22, CNP37 and PEO24-CNP27(Arg4) after i.v. administration were calculated using PK parameters such as concentration at 0 hour (C0: extrapolation, pmol/mL), total body clearance (CLtot: mL/min/kg), distribution volume at steady state (Vdss: mL/kg), area under the plasma concentration-time curve (AUC: pmol·min/mL), mean residence time (MRT: min), and half-life (T1/2: min). The PK profiles of the CNP peptides after s.c. administration were calculated using PK parameters such as maximum plasma concentration (Cmax: pmol/mL), time to reach Cmax (Tmax: min), area under the plasma concentration-time curve (AUC: pmol·min/mL), mean residence time (MRT: min), and half-life (T1/2: min).

[5] = in vivo; settings: FVB/N, mouse, plasma, iv, 100 nmol/kg
Description: To determine CNP variants having increased NEP resistance, for efficacy study in FGFR3^ach mice (see Example 11), a pharmacokinetics (PK) study is carried out that compares the pharmacokinetics properties of CNP variants to wild-type CNP22. The FGFR3^ach mouse is a mutant mouse model of achondroplasia, containing a single transgene on a background of FVB mice.
Wild-type CNP22 or variant thereof is administered as a single intravenous (i.v.) dose in 6-week old wild-type FVB mice. Exemplary PK studies were conducted using wtCNP22. Six-week old FVB/N mice were intravenously administered wtCNP22 in a single dose at 100 nmol/kg.

[6] = target: NPR-B (Homo sapiens, UniProt P20594); settings: read-out: affinity to NPR-B; cited from earlier work
[7] = target: NPR-C (Homo sapiens, UniProt P17342); settings: read-out: affinity to NPR-C; cited from earlier work
[8] = NIH3T3 cells, 10 nM natriuretic peptide, normalized to cell number and cGMP production with 1 uM wtCNP22
[9] = NIH3T3 cells, 1 uM natriuretic peptide, normalized to cell number and cGMP production with 1 uM wtCNP22

Sequence of neutral endopeptidase (NEP) (P08473 whole entry): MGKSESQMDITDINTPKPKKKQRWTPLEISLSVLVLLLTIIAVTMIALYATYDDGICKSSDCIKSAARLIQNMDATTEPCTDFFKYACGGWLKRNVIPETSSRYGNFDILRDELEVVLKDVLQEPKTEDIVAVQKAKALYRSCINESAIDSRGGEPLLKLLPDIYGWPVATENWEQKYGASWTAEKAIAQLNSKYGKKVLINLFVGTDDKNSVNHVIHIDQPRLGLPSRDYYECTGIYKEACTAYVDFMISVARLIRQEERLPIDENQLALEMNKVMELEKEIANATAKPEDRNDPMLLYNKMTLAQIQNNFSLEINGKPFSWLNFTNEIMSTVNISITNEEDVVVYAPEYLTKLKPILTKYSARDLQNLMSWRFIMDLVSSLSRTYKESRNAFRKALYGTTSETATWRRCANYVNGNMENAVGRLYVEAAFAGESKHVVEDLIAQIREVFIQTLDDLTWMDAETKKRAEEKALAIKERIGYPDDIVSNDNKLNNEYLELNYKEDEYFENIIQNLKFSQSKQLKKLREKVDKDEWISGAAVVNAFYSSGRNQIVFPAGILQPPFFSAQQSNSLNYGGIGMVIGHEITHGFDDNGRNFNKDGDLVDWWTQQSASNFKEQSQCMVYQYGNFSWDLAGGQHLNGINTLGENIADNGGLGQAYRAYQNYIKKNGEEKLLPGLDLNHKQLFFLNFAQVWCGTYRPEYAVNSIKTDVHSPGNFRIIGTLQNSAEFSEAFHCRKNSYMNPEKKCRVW
Sequence of Recombinant human NEP (P08473 whole entry): as above
Sequence of NPR-C (P17342 27-541, species assumed): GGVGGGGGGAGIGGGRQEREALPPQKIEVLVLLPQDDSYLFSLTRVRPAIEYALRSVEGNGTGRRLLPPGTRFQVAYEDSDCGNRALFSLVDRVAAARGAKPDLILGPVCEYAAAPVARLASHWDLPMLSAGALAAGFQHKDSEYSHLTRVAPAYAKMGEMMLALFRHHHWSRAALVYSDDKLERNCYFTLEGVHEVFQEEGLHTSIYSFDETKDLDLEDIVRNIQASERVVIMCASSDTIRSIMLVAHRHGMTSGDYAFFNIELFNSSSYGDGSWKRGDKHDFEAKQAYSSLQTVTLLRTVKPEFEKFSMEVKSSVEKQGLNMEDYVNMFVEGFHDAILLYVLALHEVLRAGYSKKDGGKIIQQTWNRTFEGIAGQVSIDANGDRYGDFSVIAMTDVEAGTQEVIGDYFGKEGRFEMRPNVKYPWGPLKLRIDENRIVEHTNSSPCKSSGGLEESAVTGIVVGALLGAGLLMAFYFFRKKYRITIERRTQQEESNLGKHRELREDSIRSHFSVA
Sequence of NPR-B (Homo sapiens, UniProt P20594) (P20594 23-1047, species assumed): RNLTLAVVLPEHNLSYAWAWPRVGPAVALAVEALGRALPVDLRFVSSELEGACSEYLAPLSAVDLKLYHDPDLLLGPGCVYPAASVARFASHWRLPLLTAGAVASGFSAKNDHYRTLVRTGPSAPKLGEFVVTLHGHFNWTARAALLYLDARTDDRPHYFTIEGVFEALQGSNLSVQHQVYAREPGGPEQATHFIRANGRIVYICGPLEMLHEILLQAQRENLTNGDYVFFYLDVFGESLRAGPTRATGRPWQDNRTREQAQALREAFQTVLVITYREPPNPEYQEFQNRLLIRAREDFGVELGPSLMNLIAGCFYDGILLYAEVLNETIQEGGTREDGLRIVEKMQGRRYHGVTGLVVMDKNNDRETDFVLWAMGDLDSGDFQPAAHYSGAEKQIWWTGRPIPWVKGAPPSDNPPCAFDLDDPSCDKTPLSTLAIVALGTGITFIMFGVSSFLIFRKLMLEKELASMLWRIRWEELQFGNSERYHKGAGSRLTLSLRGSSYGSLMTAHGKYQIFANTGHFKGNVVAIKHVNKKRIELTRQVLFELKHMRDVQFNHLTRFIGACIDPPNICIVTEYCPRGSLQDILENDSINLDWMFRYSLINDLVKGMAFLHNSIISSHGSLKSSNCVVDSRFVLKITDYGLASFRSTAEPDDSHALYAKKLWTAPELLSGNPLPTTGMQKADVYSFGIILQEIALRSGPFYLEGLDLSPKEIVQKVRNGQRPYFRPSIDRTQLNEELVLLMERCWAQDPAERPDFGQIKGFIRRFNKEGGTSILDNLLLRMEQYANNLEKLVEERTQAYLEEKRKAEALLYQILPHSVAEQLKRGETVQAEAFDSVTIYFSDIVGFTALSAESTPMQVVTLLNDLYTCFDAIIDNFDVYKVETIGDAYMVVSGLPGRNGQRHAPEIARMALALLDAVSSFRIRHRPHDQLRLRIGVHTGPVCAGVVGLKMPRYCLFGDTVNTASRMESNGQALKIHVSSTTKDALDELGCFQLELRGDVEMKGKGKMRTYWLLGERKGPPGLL

With `CC[C@H](C)[C@@H]1NC(=O)[C@H](CCCNC(=N)N)NC(=O)[C@H](CC(=O)O)NC(=O)[C@H](CC(C)C)NC(=O)[C@H](CCCCN)NC(=O)[C@H](CC(C)C)NC(=O)CNC(=O)[C@H](Cc2ccccc2)NC(=O)[C@@H](NC(=O)CNC(=O)[C@H](CCCCN)NC(=O)[C@H](CO)NC(=O)[C@H](CC(C)C)NC(=O)CN)CSSC[C@@H](C(=O)O)NC(=O)CNC(=O)[C@H](CC(C)C)NC(=O)CNC(=O)[C@H](CO)NC(=O)[C@H](CCSC)NC(=O)[C@H](CO)NC(=O)CNC1=O` [CNP22, CNP-22] the “sites hydrolyzed on NEP digestion” value ([1]; NEP digestion for […] in vitro) was “all possible sites were unexpectedly hydrolyzed”, the half-life at 100 uM [2] was 80 min and the cGMP response relative to 1 uM CNP22 (%) at 0.01 µM [3, 8] was 46 ± 10%. It also gave a cGMP response relative to 1 uM CNP22 (%) at 1 µM [3, 9] of 100 ± 13%, an AUC ([4]; in vivo, iv, 20 nmol/kg) of 5.33 nM·h and a half-life ([4]; in vivo, iv, 20 nmol/kg) of 1.42 min. For the same molecule, the bioavailability ([4]; in vivo, sc, 50 nmol/kg) was 19%, the half-life ([4]; in vivo, sc, 50 nmol/kg) was 10 min and the half-life [5] was 0.76 to 1.03 min. For the same molecule, the Kd [6] was 0.007 to 0.03 nM and the Kd [7] was 0.011 to 0.14 nM.

For `CC[C@H](C)[C@@H]1NC(=O)[C@H](CCCNC(=N)N)NC(=O)[C@H](CC(=O)O)NC(=O)[C@H](CC(C)C)NC(=O)[C@H](CCCCN)NC(=O)[C@H](CC(C)C)NC(=O)CNC(=O)[C@H](Cc2ccccc2)NC(=O)[C@@H](NC(=O)CNC(=O)[C@H](CCCNC(=N)N)NC(=O)[C@H](CO)NC(=O)[C@H](CC(C)C)NC(=O)CNC(=O)[C@H](CCCNC(=N)N)NC(=O)[C@H](CCCNC(=N)N)NC(=O)[C@H](CC(N)=O)NC(=O)[C@H](C)NC(=O)CNC(=O)CCOCCOCCOCCOCCOCCOCCOCCOCCOCCOCCOCCOCCOCCOCCOCCOCCOCCOCCOCCOCCOCCOCCOCCOC)CSSC[C@@H](C(=O)O)NC(=O)CNC(=O)[C@H](CC(C)C)NC(=O)CNC(=O)[C@H](CO)NC(=O)[C@H](CCSC)NC(=O)[C@H](CO)NC(=O)CNC1=O` [PEO24-GANRR-CNP22, K4R (CNP27)] ({MeO(CH2CH2O)23CH2CH2CO}-GANRRGLSRGCFGLKLDRIGSMSGLGC-OH; disulfide 11-27), the half-life at 100 uM [2] was > 160 min, the cGMP response relative to 1 uM CNP22 (%) at 0.01 µM [3, 8] was 28 ± 9% and the cGMP response relative to 1 uM CNP22 (%) at 1 µM [3, 9] was 82 ± 18%. It also gave a half-life ([4]; iv, 20 nmol/kg) of 22.3 min, a bioavailability ([4]; sc, 50 nmol/kg) of 60% and a half-life ([4]; sc, 50 nmol/kg) of 78.1 min.

For `CC[C@H](C)[C@@H]1NC(=O)[C@H](CCCNC(=N)N)NC(=O)[C@H](CC(=O)O)NC(=O)[C@H](CC(C)C)NC(=O)[C@H](CCCCN)NC(=O)[C@H](CC(C)C)NC(=O)CNC(=O)[C@H](Cc2ccccc2)NC(=O)[C@@H](NC(=O)CNC(=O)[C@H](CCCNC(=N)N)NC(=O)[C@H](CO)NC(=O)[C@H](CC(C)C)NC(=O)CNC(=O)[C@H](CCCNC(=N)N)NC(=O)CCOCCOCCOCCOCCOCCOCCOCCOCCOCCOCCOCCOC)CSSC[C@@H](C(=O)O)NC(=O)CNC(=O)[C@H](CC(C)C)NC(=O)CNC(=O)[C@H](CO)NC(=O)[C@H](CCSC)NC(=O)[C@H](CO)NC(=O)CNC1=O` [PEO12-R-CNP22, K4R] ({CH3O(CH2CH2O)11CH2CH2CO}-RGLSRGCFGLKLDRIGSMSGLGC-OH; disulfide 7-23), the “resistance to NEP cleavage/degradation (in words)” value [1] was “much more resistant to NEP degradation than CNP22”, the half-life at 100 uM [2] was ≥ 160 min and the cGMP response relative to 1 uM CNP22 (%) at 0.01 µM [3, 8] was 23 ± 2%. It also gave a cGMP response relative to 1 uM CNP22 (%) at 1 µM [3, 9] of 93 ± 19%.

With `CC[C@H](C)[C@@H]1NC(=O)[C@H](CCCNC(=N)N)NC(=O)[C@H](CC(=O)O)NC(=O)[C@H](CC(C)C)NC(=O)[C@H](CCCCN)NC(=O)[C@H](CC(C)C)NC(=O)CNC(=O)[C@H](Cc2ccccc2)NC(=O)[C@@H](NC(=O)CNC(=O)[C@H](CCCNC(=N)N)NC(=O)[C@H](CO)NC(=O)[C@H](CC(C)C)NC(=O)CN)CSSC[C@@H](C(=O)O)NC(=O)CNC(=O)[C@H](CC(C)C)NC(=O)CNC(=O)[C@H](CO)NC(=O)[C@H](CCSC)NC(=O)[C@H](CO)NC(=O)[C@H](CC(N)=O)NC1=O` [BJ] (H-GLSRGCFGLKLDRINSMSGLGC-OH; disulfide 6-22 (inferred); N-terminus and C-terminus assumed) the “resistance to NEP cleavage/degradation (in words)” value ([1]; in vitro NEP cleavage assay, assay period 160 minutes) was “greatest resistance to NEP cleavage”, the half-life at 100 uM [2] was 150 min and the cGMP response relative to 1 uM CNP22 (%) at 0.01 µM ([3]; NIH3T3, […]) was 4%. For the same molecule, the cGMP response relative to 1 uM CNP22 (%) at 1 µM ([3]; NIH3T3, […]) was 41%.

Source: patent publication US8377884B2, “Variants of C-type natriuretic peptides” (Biomarin Pharmaceutical Inc., priority 2007, dated 2013)
